One block for each molecule: values may come before it.
Columns and labels:
Type in all cases: cell-based, human
HUVEC or pericytes (LNC) = experiment: Cell proliferation by Edu nuclear staining; details: HUVEC or pericytes (LNC) alone
Excerpt: Cells: GFP HUVEC (P3) were purchased from Neuromics (Cat #GF01). These cells were isolated from normal human umbilical vein and transfected with GFP-lentiviral particle at passage 1. Puromycin resistant GFP HUVEC were maintained on fibronectin coated solution in Endo-growth medium containing 5% FBS and growth supplement until passage 3. Cells were split 1:3 every three days when ˜70%-90% confluence is reached. Cells of passage 3-8 were used for all experiments.
LNC (P2-P5) was expanded in MESCM containing 4 ng/ml bFGF and 10 ng/ml LIF on 6-well plastic coated with 5% Matrigel™

P10 LNC [1] = experiment: Immunofluorescence staining (cytospin), nuclear translocation
Method: Immunostaining: LNC were then subjected to cytospin to determine nuclear translocation of HIF1α, HIF1β, HIF2α, SDF-1, CXCR4, and Hes1 at 5, 15, 30 and 60 mins.
Single cells of LNC or CSC at different passages were harvested with 0.05% trypsin and 1 mM EDTA at 37° C. for 10 min and prepared for cytospin using Cytofuge (StatSpin Inc., Norwood, Mass.) at 1000 g for 8 min. Cells were fixed with 4% formaldehyde, pH 7.0, for 15 min at room temperature, permeabilized with 0.2% Triton X-100 in PBS for 15 min and blocked with 2% bovine serum albumin (BSA) for 1 h before incubated with primary antibodies for 16 h at 4° C. After 3 washes with PBS, the corresponding Alexa Fluor-conjugated secondary IgG (all 1:100 dilution) were incubated for 60 min and 3 washing with PBS. After 3 washes with PBS, the second primary antibodies were incubated for 60 min and followed with the corresponding Alex Fluor-conjugated secondary IgG. The nucleus was counterstained with Hoechst 33342 before being analyzed with Zeiss LSM 700 confocal microscope (Carl Zeiss, Thornwood, N.Y.). Corresponding mouse and rabbit sera were used as negative controls for primary monoclonal and polyclonal antibodies, respectively.

P10 LNC [2] = experiment: Cell aggregation / sphere formation by phase contrast microscopy
Method: (§1) Cell culture: For time course study, 1×10^5/ml of P10 LNC was seeded on three substrates: 3D Matrigel™, HA, or HC-HA/PTX3 in MESCM at 5, 15, 30, 60 mins, 24 h and 48 h (Table 2).
For expansion, single cells derived from limbal clusters or CSC after digestion with 0.25% trypsin and 1 mM EDTA (T/E) were seeded at 1×10^4/cm^2 in the 6-well plate pre-coated with 5% Matrigel™ in MESCM and cultured in humidified 5% CO2 with media change every 3-4 days for total 6-7 days. For cells culture in three-dimensional (3D) Matrigel, Matrigel was prepared by adding 50% Matrigel diluted in MESCM per chamber of an 8-well chamber slide following incubation at 37° C. for 60 min. LNC cells were seeded in 3D Matrigel and cultured for 24 h or 48 h in MESCM.
(§2) For the siRNA knockdown, 80% confluent P10 LNC on 6-well coated MG were subjected to transfection by mixing 200 μL of serum-free, antibiotic-free MESCM with 4 μL of HiPerFect siRNA transfection reagent (Final dilution, 1:300) and 6 μL of 20 μM of scRNA or siRNAs for BMPR1A, BMPR1B, BMPR2, and ACVR1 at the final concentration of 100 nM, drop-wise, followed by culturing in 1 mL of fresh MESCM at 37° C. for 24 h before soluble HC-HA/PTX3 was added at a final concentration of 20 μg/mL in MESCM.

Rac1 = experiment: Rho GTPase activity in LNC; details: within 60 minutes, HC-HA/PTX3 active at 5 and 15 min, reduced at 30 min
P4 LNC [3] = experiment: Immunofluorescence staining (cytospin), nuclear translocation
Method: Cell culture: For time course study, 1×10^5/ml of P4 LNC were seeded on substrates HA or HC-HA/PTX3 in MESCM at 5, 15, 30, 60 min, 24 h and 48 h (Table 3).
Immunostaining: LNC then were subjected to cytospin to determine nuclear translocation of HIF1α, HIF1β, HIF2α, SDF-1, CXCR4, and Hes1 at 5, 15, 30 and 60 min.

LEPC and LNC = experiment: Blocking Notch signaling in LEPC+LNC on immobilized HC-HA/PTX3
Method: FIGS. 41A-41C illustrate blocking Notch signaling inhibits BMP and non-canonical Wnt in LEPC and LNC on immobilized HC-HA/PTX3 at 48 hours. FIG. 41A illustrates a graph of mRNA levels of various genes following treatment of HC-HA/PTX3 and HC-HA/PTX3/DAPT in LNCS renunioned with LEPC. FIG. 41B illustrates immunostaining with various markers.

P4 LNC [4] = experiment: Notch signaling and transcript expression in P4 LNC on plastic, 3D Matrigel or immobilized HC-HA/PTX3
P10 LNC [5] = experiment: Time course mRNA expression by qPCR
Method: as §1
qPCR: Comparisons were made of mRNA expression of HIF1α, HIF1β, HIF2α, SDF-1, CXCR4, Hes1 at 5, 15, 30, 60, 120, 240 min or 24 and 48 h.
Cell culture: 1×10^5/ml of P10 LNC was seeded on three substrates: 3D Matrigel™ HA, or HC-HA/PTX3 in MESCM for 48 h. For time course study on HC-HA/PTX3, P10 LNC will be treated HC-HA/PTX3 for 5, 15, 30, 60 mins, 24 h and 48 h.
qPCR: Comparison mRNA expression VEGF, PDGFα, CD31 and IGF-1 for angiogenesis and NGF and p75^NTR for neurogenesis at 5, 15, 30, 60, 120, 240 min 24 or 48 h on 3D MG, immobilized HA and immobilized HC-HA/PTX3.
as §2
Total RNAs were extracted from expanded LNC by RNeasy Mini Kit (Qiagen, Valencia, Calif.) according to manufacturer's guideline and 1-2 ug of RNA extract was reverse transcribed to cDNA with reverse-transcribed using Applied Biosystem™ High Capacity Reverse Transcription Kit (Thermo Fisher, Santa Clara, Calif.) using primers. The resultant cDNAs were amplified by specific TaqMan gene expression assay mix and universal PCR master mix in QuantStudio™ 5 Real Time PCR System (Thermo Fisher, Santa Clara, Calif.) with real-time RT-PCR profile consisting of 10 min of initial activation at 95° C., followed by 40 cycles of 15 sec denaturation at 95° C., and 1 min annealing and extension at 60° C. […] Threshold cycle number (Ct) was calculated with QuantStudio Design and. […] The relative gene expression data were analyzed by the comparative CT method (ΔΔCT). […]

P10 LNC [6] = experiment: Subcellular fractionation and Western blotting
Method: Nuclear and cytoplasmic fractions were prepared using the NE-PER® Nuclear and Cytoplasmic Extraction Reagents Kit (Pierce, Rockford, Ill., USA) as per manufacturer's instruction. Briefly, the treated P10 LNC were washed once on cold PBS and centrifuged at 500 g for 5 min.
The cell pellet was suspended in 100 μL of cytoplasmic extraction reagent I containing protease inhibitor by vortexing. The suspension was incubated on ice for 10 min followed by the addition of 6 μL of a second cytoplasmic extraction reagent II, vortexed for 5s, incubated on ice for 1 min and centrifuged for 5 min at 16 000 g. The supernatant fraction (cytoplasmic extract) was transferred to a pre-chilled tube. The insoluble pellet fraction, which contains crude nuclei, was resuspended in 50 μL of nuclear extraction reagent by vortexing during 15s three times and incubated on ice for 10 min each, then centrifuged for 10 min at 16 000 g. The resulting supernatant, constituting the nuclear extract, was used for the subsequent experiments. Protein concentration was quantitated using the BCA protein assay kit (Pierce). […] Immunoreactive proteins were detected with Western Lighting Chemiluminescence (PerkinElmer, Waltham, Mass.) and images captured by GE ImageQuant LAS 4000 (GE Healthcare Biosciences, Pittsburgh, Pa.).

Rac1 GTPase activities (Rac1): gradual decline
Molecule: hyaluronic acid [HA]
cell proliferation (Edu nuclear staining) (HUVEC or pericytes (LNC)): promoted cell proliferation
nuclear PP2A C subunit (P10 LNC [1]; 5 and 30 min, comparators entire 60 min): significantly less expression
CXCR4 localisation (P10 LNC [1]; HC-HA/PTX3: as early as 15 min, prominent at 30 min, no longer nuclear at 60 min): membrane translocation
staining of HIF1α and HIF1β (P10 LNC [1]; HC-HA/PTX3: at 5 min, HIF1α sustained till 15 and 30 min): both cytoplasmic and nuclear
nuclear p-PHD2 (serine 125) (P10 LNC [1]; HC-HA/PTX3 at 5 and 15 min, HA and 3D MG throughout 60 min): maintained nuclear Phospho-PHD2
earliest nucleus Hes1 (P10 LNC [1]; P10 LNC): 15 min
cell aggregation as early as 60 min (P10 LNC [2]): not
HIF2α (P4 LNC [3]): No changes
NICD and SDF1 (P4 LNC [3]): No changed
time of HIF1α nuclear translocation (P4 LNC [3]): did the same
time of HIF1β nuclear translocation (P4 LNC [3]): 5 to 30 min
time of Hes1 nuclear translocation (P4 LNC [3]): 5 to 15 min
CXCR4 nuclear translocation (P4 LNC [3]; 5, 30 min, transient): does not

Molecule: C[C@H](NC(=O)Cc1cc(F)cc(F)c1)C(=O)N[C@H](C(=O)OC(C)(C)C)c1ccccc1 [DAPT]
nuclear psmad/1/5/8 and c-Jun (LEPC and LNC; LEPC+LNC on immobilized HC-HA/PTX3): absence
quiescence epithelium markers (LEPC and LNC; LEPC+LNC on immobilized HC-HA/PTX3, 48 hours): significantly downregulated
cell aggregation of LNC on HC-HA/PTX3, effect of inhibitor (P4 LNC [4]): did not prevent
Notch1/2/3/Jagged 1/Hes1 signaling with MET epithelial phenotype (p63α, Pax6, Sox9), effect of inhibitor (P4 LNC [4]; LNC on HC-HA/PTX3): further promoted

Molecule: c1cc(CN2CCCNCCNCCCNCC2)ccc1CN1CCCNCCNCCCNCC1 [AMD3100]
HIF-1α and HIF-1β transcripts (P10 LNC [5]; addition of AMD3100): upregulated two peaks
transcript levels of BMP2, BMP4 and BMP6, effect of inhibitor (P10 LNC [5]; throughout 48 h, with soluble HC-HA/PTX3): aborted
Pax6, p75NTR, NGF, Musashi-1, Msx-1 and FoxD3 transcripts, effect of inhibitor (P10 LNC [5]; with soluble HC-HA/PTX3): significant downregulation
CXCR4 staining (P10 LNC [1]; 60 min period, P10 LNC, soluble HC-HA/PTX3 with or without AMD3100, or 3D MG): reverted to that of 3D MG
nuclear staining of pSmad1/5 (P10 LNC [1]; P10 LNC, soluble HC-HA/PTX3 with or without AMD3100): absent nuclear staining
immunofluorescence of SDF-1 (P10 LNC [1]; throughout 60 min): became negative
nuclear pSmad1/5 (P10 LNC [6]; 5, 15, 30 min): not promoted
CXCR4 and Pax6 protein in cytoplasmic and nuclear fractions (P10 LNC [6]; 15 and 30 min, AMD3100 all time points): remain in cytoplasmic fraction

From US20230172994A1, “METHODS OF PROMOTING VASCULOGENESIS” (TissueTech, Inc., priority 2019, published 2023)
